In patent US20030068289A1, “Skin treatment” (Unilever Home & Personal Care USA, Division of Conopco, Inc., priority 2001, published 2003):

Assays:
scalp stratum corneum = test system: scalp stratum corneum
Method: (§1) Panellists consisting of males and females were used. Their scalps were assessed to confirm they were suffering from dandruff. The scalps were divided into two, from the centre of the forehead to the nape of the neck. Four sites of similar scalp condition, two on each side of the head, were identified.
(§2) Panellists were assessed for scalp condition then suitable subjects given a placebo shampoo (ie. non anti-dandruff) to use for approximately 5 weeks. They were then asked to return, having not washed their hair or applied products to it for 48 hours. They were re-assessed then tape stripped at one site on each side o: the head ([…]). They then returned to be salon washed, by salon operators, 3 times their week with ½ of each head washed in the placebo and the other ½ in a shampoo containing 1% ZnPTO. After approximately 4 weeks, they were assessed and tape stripped again an adjacent sites to the first two.
Samples were collected by parting the hair and lightly swabbing with an alcohol swab to remove excess sebum. A total of eight sequential tapestrips were taken from each site. These were stored frozen until required for analysis.
The corneocytes were removed from the tapes by sonicating in methanol and the free lipid was extracted from them in a chloroform/methanol mixture, which was then dried under nitrogen. The residue was reconstituted in chloroform arid the lipid species separated on amino-propyl bonded silica gel columns.
The lipids were then separated and quantified using HPTLC. The lipids analysed were total fatty acids, cholesterol, triglycerides and ceramides. The ceramides were separated into the individual ceramides that are normally seen. The covalently bound lipids were not analysed here. The protein content of the samples were measured and the lipid levels expressed as ng lipid per μg protein. The individual ceramides were also expressed as relative % of total ceramides.

dandruff = settings: 7 subjects; also decreased for placebo
Method: as §1, §2

[1] = after vs before, significant only after the ZnPTO treatment

zinc pyrithione [ZnPTO]
Relative % lipids in scalp stratum corneum: Cholesterol (scalp stratum corneum; After ZnPTO, approx 4 weeks, spread 1.4 in row below, Before ZnPTO 11.6 ± 4.5): 8.8% | Relative % lipids in scalp stratum corneum: Ceramides (scalp stratum corneum; After ZnPTO, approx 4 weeks, spread 3.8 in row below, Before ZnPTO 31.0 ± 8.1): 16.4% | Relative % lipids in scalp stratum corneum: Fatty Acids (scalp stratum corneum; After ZnPTO, approx 4 weeks, spread 16.6 in row below, Before ZnPTO 36.0 ± 12.5): 31.8% | Relative % lipids in scalp stratum corneum: Triglycerides (scalp stratum corneum; After ZnPTO, approx 4 weeks, spread 19.2 in row below, Before ZnPTO 21.4 ± 4.8): 43.0% | Mass level of lipid: Fatty Acids (scalp stratum corneum; After ZnPTO: shampoo containing 1% ZnPTO, 3 washes per week, approx 4 weeks, half-head, spread 748.6 in row below, Before ZnPTO 364.9 ± 231.9): 1518.1 ng lipid per μg protein | Mass level of lipid: Cholesterol (scalp stratum corneum; After ZnPTO: shampoo containing 1% ZnPTO, approx 4 weeks, spread 221.8 in row below, Before ZnPTO 108.9 ± 44.3): 478.3 ng lipid per μg protein | Mass level of lipid: Ceramides (scalp stratum corneum; After ZnPTO: shampoo containing 1% ZnPTO, approx 4 weeks, spread 243.9 in row below, Before ZnPTO 284.3 ± 62.4): 841.5 ng lipid per μg protein | Mass level of lipid: Triglycerides (scalp stratum corneum; After ZnPTO: shampoo containing 1% ZnPTO, approx 4 weeks, spread 1911.2 in row below, Before ZnPTO 208.5 ± 77.1): 2539.7 ng lipid per μg protein | Mass level of lipid: Total Lipid (scalp stratum corneum; After ZnPTO: shampoo containing 1% ZnPTO, approx 4 weeks, spread 2056.0 in row below, Before ZnPTO 966.6 ± 282.5): 5377.6 ng lipid per μg protein | Ceramide 6i as % of total ceramides (scalp stratum corneum; After ZnPTO, spread 2.0 in row below, Before ZnPTO 9.2 ± 1.1): 8.0% | Ceramide 6ii as % of total ceramides (scalp stratum corneum; After ZnPTO, spread 2.1 in row below, Before ZnPTO 13.8 ± 2.1): 8.0% | Ceramide 3a as % of total ceramides (scalp stratum corneum; After ZnPTO, spread 2.8 in row below, Before ZnPTO 12.4 ± 1.7): 19.2% | Ceramide 3 as % of total ceramides (scalp stratum corneum; After ZnPTO, spread 4.0 in row below, Before ZnPTO 11.8 ± 3.9): 5.9% | Ceramide 1 as % of total ceramides (scalp stratum corneum; After ZnPTO, spread 5.3 in row below, Before ZnPTO 11.3 ± 4.1): 14.6% | Ceramide 2 as % of total ceramides (scalp stratum corneum; After ZnPTO, spread 5.4 in row below, Before ZnPTO 19.4 ± 4.5): 22.3% | Ceramide 4/5 as % of total ceramides (scalp stratum corneum; After ZnPTO, spread 5.9 in row below, Before ZnPTO 22.2 ± 3.0): 22.1% | Relative composition of the samples after treatment, placebo vs ZnPTO (scalp stratum corneum; after treatment): no significant differences | All the lipids measured, mass levels after ZnPTO treatment compared with before treatment (scalp stratum corneum; after vs before treatment): significantly increased | Change in relative % cholesterol with treatment (scalp stratum corneum; after vs before treatment): do not change | Change in relative % fatty acid with treatment (scalp stratum corneum; after vs before treatment): do not change | Change in relative % ceramide after treatment (scalp stratum corneum; after vs before treatment, also after placebo): significantly decreases | Change in % triglyceride after treatment (scalp stratum corneum; after vs before treatment, significant for ZnPTO): increase in % triglyceride, which is significant for ZnPTO | Change in relative % ceramide 6ii after treatment (scalp stratum corneum; after vs before, after both treatments): statistically significant decrease | Change in relative % ceramide 3a after treatment (scalp stratum corneum; [1]): increase in ceramide 3a | Change in relative % ceramide 3 after treatment (scalp stratum corneum; [1]): decrease in ceramide 3 | Level of ceramide, side treated with ZnPTO vs side treated with placebo (scalp stratum corneum; sites sampled after treatment): significantly higher | Level of cholesterol, side treated with ZnPTO vs side treated with placebo (scalp stratum corneum; sites sampled after treatment): significantly higher | Mean dandruff scores after treatment compared with before treatment (dandruff): decreased
